Results published in the supplement of paper PMC10307832.

Assays:
Test in all cases: relative viability (nuclei count vs DMSO), 5 days (fraction); higher = more cells survive
NCI-H727 = system: NCI-H727
In short: (§1)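 Relative viability divides the nuclei count in treated wells by that in vehicle wells. Lung cancer cell lines were seeded in 1536-well plates, dosed by pin tool the next day, and fixed and stained after 5 days in one step with final 0.05% Triton X-100, 1% formaldehyde and 1 ug/ml Hoechst. Dosing was a single drug or a fixed anchor-drug dose plus five library-drug doses (not always all listed) in √10 steps, and values are medians of duplicate plates imaged at 4×.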

LOU-NH91 = system: LOU-NH91
In short: as §1

NCI-H23 = system: NCI-H23
In short: as §1

NCI-H650 = system: NCI-H650
In short: as §1

NCI-H2405 = system: NCI-H2405
In short: as §1

ChaGo-K-1 = system: ChaGo-K-1
In short: as §1

201T = system: 201T
In short: as §1

EKVX = system: EKVX
In short: as §1

NCI-H2228 = system: NCI-H2228
In short: as §1

NCI-H2126 = system: NCI-H2126
In short: as §1

SW 900 = system: SW 900
In short: as §1

NCI-H3122 = system: NCI-H3122
In short: as §1

H3255 = system: H3255
In short: as §1

COR-L 105 = system: COR-L 105
In short: as §1

NCI-H661 = system: NCI-H661
In short: as §1

SK-LU-1 = system: SK-LU-1
In short: as §1

HARA = system: HARA
In short: as §1

NCI-H1975 = system: NCI-H1975
In short: as §1

PC-3 [JPC-3] = system: PC-3 [JPC-3]
In short: as §1

HCC-827 = system: HCC-827
In short: as §1

LCLC-103H = system: LCLC-103H
In short: as §1

NCI-H596 = system: NCI-H596
In short: as §1

HOP-62 = system: HOP-62
In short: as §1

`CN1CCN(CCOc2cc(OC3CCOCC3)c3c(Nc4c(Cl)ccc5c4OCO5)ncnc3c2)CC1` [Saracatinib] + Cc1nc(Nc2ncc(C(=O)Nc3c(C)cccc3Cl)s2)cc(N2CCN(CCO)CC2)n1 [Dasatinib] (partner 0.075 µM) gave a relative viability (NCI-H727; first compound 0.02 µM) of 0.396, a relative viability (NCI-H727; first compound 0.2 µM) of 0.377 and a relative viability (NCI-H727; first compound 0.6325 µM) of 0.564. It also gave a relative viability (NCI-H727; first compound 2 µM) of 0.356, a relative viability (LOU-NH91; first compound 0.02 µM) of 0.507 and a relative viability (LOU-NH91; first compound 0.2 µM) of 0.429. The relative viability (LOU-NH91; first compound 0.6325 µM) was 0.418, the relative viability (LOU-NH91; first compound 2 µM) was 0.419 and the relative viability (NCI-H23; first compound 0.02 µM) was 0.805. For the same molecule, the relative viability (NCI-H23; first compound 0.2 µM) was 0.613, the relative viability (NCI-H23; first compound 0.6325 µM) was 0.837 and the relative viability (NCI-H23; first compound 2 µM) was 0.789. For the same molecule, the relative viability (NCI-H650; first compound 0.02 µM) was 0.491, the relative viability (NCI-H650; first compound 0.2 µM) was 0.416 and the relative viability (NCI-H650; first compound 0.6325 µM) was 0.477. The relative viability (NCI-H650; first compound 2 µM) was 0.429, the relative viability (NCI-H2405; first compound 0.02 µM) was 0.22 and the relative viability (NCI-H2405; first compound 0.2 µM) was 0.223. It also gave a relative viability (NCI-H2405; first compound 0.6325 µM) of 0.228, a relative viability (NCI-H2405; first compound 2 µM) of 0.169 and a relative viability (ChaGo-K-1; first compound 0.02 µM) of 0.732. It also gave a relative viability (ChaGo-K-1; first compound 0.2 µM) of 0.431, a relative viability (ChaGo-K-1; first compound 0.6325 µM) of 0.657 and a relative viability (ChaGo-K-1; first compound 2 µM) of 0.459. It also gave a relative viability (201T; first compound 0.02 µM) of 0.602, a relative viability (201T; first compound 0.2 µM) of 0.567 and a relative viability (201T; first compound 0.6325 µM) of 0.57. For the same molecule, the relative viability (201T; first compound 2 µM) was 0.489, the relative viability (EKVX; first compound 0.02 µM) was 0.5 and the relative viability (EKVX; first compound 0.2 µM) was 0.363. It also gave a relative viability (EKVX; first compound 0.6325 µM) of 0.622, a relative viability (EKVX; first compound 2 µM) of 0.364 and a relative viability (NCI-H2228; first compound 0.02 µM) of 0.501. For the same molecule, the relative viability (NCI-H2228; first compound 0.2 µM) was 0.556, the relative viability (NCI-H2228; first compound 0.6325 µM) was 0.576 and the relative viability (NCI-H2228; first compound 2 µM) was 0.372. It also gave a relative viability (NCI-H2126; first compound 0.02 µM) of 0.569, a relative viability (NCI-H2126; first compound 0.2 µM) of 0.511 and a relative viability (NCI-H2126; first compound 0.6325 µM) of 0.532. For the same molecule, the relative viability (NCI-H2126; first compound 2 µM) was 0.398, the relative viability (SW 900; first compound 0.02 µM) was 0.559 and the relative viability (SW 900; first compound 0.2 µM) was 0.549. For the same molecule, the relative viability (SW 900; first compound 0.6325 µM) was 0.548, the relative viability (SW 900; first compound 2 µM) was 0.549 and the relative viability (NCI-H3122; first compound 0.02 µM) was 0.879. It also gave a relative viability (NCI-H3122; first compound 0.2 µM) of 0.666, a relative viability (NCI-H3122; first compound 0.6325 µM) of 0.562 and a relative viability (NCI-H3122; first compound 2 µM) of 0.655. It also gave a relative viability (H3255; first compound 0.02 µM) of 0.389, a relative viability (H3255; first compound 0.2 µM) of 0.303 and a relative viability (H3255; first compound 0.6325 µM) of 0.344. For the same molecule, the relative viability (H3255; first compound 2 µM) was 0.267, the relative viability (COR-L 105; first compound 0.02 µM) was 0.448 and the relative viability (COR-L 105; first compound 0.2 µM) was 0.457. The relative viability (COR-L 105; first compound 0.6325 µM) was 0.376, the relative viability (COR-L 105; first compound 2 µM) was 0.242 and the relative viability (NCI-H661; first compound 0.02 µM) was 0.891. It also gave a relative viability (NCI-H661; first compound 0.2 µM) of 0.797, a relative viability (NCI-H661; first compound 0.6325 µM) of 0.817 and a relative viability (NCI-H661; first compound 2 µM) of 0.528. For the same molecule, the relative viability (SK-LU-1; first compound 0.02 µM) was 0.148, the relative viability (SK-LU-1; first compound 0.2 µM) was 0.14 and the relative viability (SK-LU-1; first compound 0.6325 µM) was 0.138. It also gave a relative viability (SK-LU-1; first compound 2 µM) of 0.146, a relative viability (HARA; first compound 0.02 µM) of 0.225 and a relative viability (HARA; first compound 0.2 µM) of 0.224. The relative viability (HARA; first compound 0.6325 µM) was 0.272, the relative viability (HARA; first compound 2 µM) was 0.23 and the relative viability (NCI-H1975; first compound 0.02 µM) was 0.487. For the same molecule, the relative viability (NCI-H1975; first compound 0.2 µM) was 0.343, the relative viability (NCI-H1975; first compound 0.6325 µM) was 0.372 and the relative viability (NCI-H1975; first compound 2 µM) was 0.253. For the same molecule, the relative viability (PC-3 [JPC-3]; first compound 0.02 µM) was 0.941, the relative viability (PC-3 [JPC-3]; first compound 0.2 µM) was 0.952 and the relative viability (PC-3 [JPC-3]; first compound 0.6325 µM) was 0.682. The relative viability (PC-3 [JPC-3]; first compound 2 µM) was 0.595, the relative viability (HCC-827; first compound 0.02 µM) was 0.3 and the relative viability (HCC-827; first compound 0.2 µM) was 0.136. The relative viability (HCC-827; first compound 0.6325 µM) was 0.22, the relative viability (HCC-827; first compound 2 µM) was 0.131 and the relative viability (LCLC-103H; first compound 0.02 µM) was 0.475. The relative viability (LCLC-103H; first compound 0.2 µM) was 0.496, the relative viability (LCLC-103H; first compound 0.6325 µM) was 0.466 and the relative viability (LCLC-103H; first compound 2 µM) was 0.515. It also gave a relative viability (NCI-H596; first compound 0.02 µM) of 0.558, a relative viability (NCI-H596; first compound 0.2 µM) of 0.659 and a relative viability (NCI-H596; first compound 0.6325 µM) of 0.607. It also gave a relative viability (NCI-H596; first compound 2 µM) of 0.57, a relative viability (HOP-62; first compound 0.02 µM) of 0.757 and a relative viability (HOP-62; first compound 0.2 µM) of 0.663. The relative viability (HOP-62; first compound 0.6325 µM) was 0.766 and the relative viability (HOP-62; first compound 2 µM) was 0.636.
